According to patent US11773078B2, “Furin inhibitors” (Glaxosmithkline Intellectual Property Development Limited, priority 2018, dated 2023):
Where a name gives a salt, the structure may show the parent alone.

Columns and labels:
[1] = molecular target: T1, Furin (108-574-Tev-Flag-His) enzyme (Homo sapiens, UniProt P09958); experiment: Furin enzyme assay; assay type: biochemical
T1 construct: Furin (108-574-Tev-Flag-His) enzyme was expressed and purified from CHO cells; TEV cleavage site (C); FLAG (C); His (C); made in house; host or cells: CHO cells
Method in brief: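 Compounds ran as 11-point threefold dilutions (0.00017–10 μM final) against 40 pM furin, purified from CHO cells, for 2 h at room temperature. Buffer: 100 mM HEPES pH7.5 with 1 mM CaCl2 and 0.005% Triton X-100. Envision readout. Four-parameter curve gives pXC50.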

[2] = molecular target: T2, furin (endogenous protease) in U20S cells (Homo sapiens, UniProt P09958); experiment: Furin cell-based assay (image-based, Golgi-targeted GFP with BMP10 furin/PCSK cleavage site); details: 24-hour incubation, read-out: furin golgi cell pXC50 (converted);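 further: Read-out is mean GFP fluorescence of Golgi puncta per cell by high-content imaging, retained when furin inhibited, over an eleven-point 0.00017–10 µM series, four-parameter fit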
T2 construct: the endogenous protease cleaves GFP; endogenous in cells; host or cells: U2OS cells transduced with a BacMam reporter

[3] = test system: hydroxyproline (a specific marker for collagen) in mouse lung; experiment: Bleomycin induced lung fibrosis model: hydroxyproline assay; assay type: in vivo; details: relative to levels induced by Bleomycin in vehicle treated animals, *p < 0.05
Method: (§1) Preclinical pulmonary fibrosis can be induced by single instillation of Bleomycin to the mouse lung. A 15-day Bleomycin protocol was developed to evaluate compounds of the invention in vivo for their ability to inhibit TGFβ secretion and collagen deposition in the mouse lung. On the day before Bleomycin instillation, compounds were administrated to mice based on the appropriate route and frequency. On the study initiation day, under Ketamine (80 mg/kg) and Xylazine (10 mg/kg) anesthesia, all the animals were cannulated oro-tracheally and 50 μL of normal saline (Sham control) or 0.03 U Bleomycin in 50 μL saline (all groups except sham control group) was delivered into the trachea. Compounds were dosed daily until the end of study on Day 15. On termination day, animals were euthanized using CO2 inhalation. The right lung was collected, washed in normal saline, weighed, flash frozen in liquid nitrogen and stored at −80° C. for hydroxyproline (a specific marker for collagen) and TGFβ assays.
(§2) Flash frozen whole right lung tissues were homogenized in 500 μL of RIPA buffer containing PMSF and protease inhibitor cocktail using zirconium oxide bead based homogenizer (Bullet blender Gold, NextAdvance, Germany). Briefly, tissues were spun in the homogenizer at 4° C. for three cycles of 10 minutes each at 1000 g. A complete uniform tissue mixture was obtained using this procedure. The homogenate volume was made up to 1.5 mL by adding 1 mL of RIPA buffer containing PMSF and protease inhibitor cocktail to 500 μL of homogenate. The homogenate was stored as aliquots of 100-500 μL each at −80° C.
Acid hydrolysis: 500 μL of the homogenized lung parenchyma was transferred to glass vials, and an equal volume of 12N HCl was added (final concentration of HCl: 6N). The vials were purged with nitrogen gas, sealed and incubated overnight (16 h) under anoxic conditions at 110° C.
Post incubation procedures: 35 μL of the sample from each tube or standard (prepared by serial dilution of hydroxyproline stock solution) was added onto a 96 well plate and the assay was performed as per the kit protocol (Quickzyme Biosciences: Cat #: QZBHYPR05). After the final color development, absorbance was measured by colorimetric analysis at 570 nm (using Thermoscan spectrum (Plate Reader) and results were recorded. Standard curve (linear graph) was generated by using hydroxyproline standards provided in the Quickzyme kit.

TGFβ in mouse lung = experiment: Bleomycin induced lung fibrosis model: TGFβ assay; assay type: in vivo; details: relative to levels induced by Bleomycin in vehicle treated animals, *p < 0.05
Method: as §1, §2
Lung tissue homogenates (500 μL) were spun at 13,000 rpm for 20 minutes at 4° C. and supernatants were collected for TGFβ estimation. The assay was performed according to the manufacturer's manual (R&D systems: Cat #SMB100B). Briefly, the lung homogenates were activated by acid activation followed by neutralization to convert latent TGFβ to active TGFβ and the total TGFβ levels in supernatants were measured. Total protein levels in the lung supernatant were also determined.

[4] = test system: epithelial sodium channel (ENaC); experiment: TEER assay, chronic or acute treatment, Non-CF Polarized Human Lobar Bronchial Epithelial Cells; assay type: cell-based; parameters: RTE Before Amil / RTE After Amil: unit not given here; details: for Delta RTE / RTE After Amil / RTE Before Amil: chronic treatment (overnight)
Method: Primary cultures of CF delF508 or non-CF HBE cells are seeded onto permeable filter supports and grown for 12-14 days for a significant RTE to be measured for TEER assays.
When the ENaC is active under basal conditions (at least in part due to protease cleavage inside the cell or at the apical membrane), there is a finite RTE that is affected by the Na+ current flowing through ENaC heterotrimers (αβγ or δβγ).

[5] = acute treatment, 3 μM thru 50 μM
[6] = 10 mg/kg, Intra-peritoneal, Twice daily
[7] = 10 mg/kg, Intra-peritoneal, Once daily

T2 sequence (P09958 108-794): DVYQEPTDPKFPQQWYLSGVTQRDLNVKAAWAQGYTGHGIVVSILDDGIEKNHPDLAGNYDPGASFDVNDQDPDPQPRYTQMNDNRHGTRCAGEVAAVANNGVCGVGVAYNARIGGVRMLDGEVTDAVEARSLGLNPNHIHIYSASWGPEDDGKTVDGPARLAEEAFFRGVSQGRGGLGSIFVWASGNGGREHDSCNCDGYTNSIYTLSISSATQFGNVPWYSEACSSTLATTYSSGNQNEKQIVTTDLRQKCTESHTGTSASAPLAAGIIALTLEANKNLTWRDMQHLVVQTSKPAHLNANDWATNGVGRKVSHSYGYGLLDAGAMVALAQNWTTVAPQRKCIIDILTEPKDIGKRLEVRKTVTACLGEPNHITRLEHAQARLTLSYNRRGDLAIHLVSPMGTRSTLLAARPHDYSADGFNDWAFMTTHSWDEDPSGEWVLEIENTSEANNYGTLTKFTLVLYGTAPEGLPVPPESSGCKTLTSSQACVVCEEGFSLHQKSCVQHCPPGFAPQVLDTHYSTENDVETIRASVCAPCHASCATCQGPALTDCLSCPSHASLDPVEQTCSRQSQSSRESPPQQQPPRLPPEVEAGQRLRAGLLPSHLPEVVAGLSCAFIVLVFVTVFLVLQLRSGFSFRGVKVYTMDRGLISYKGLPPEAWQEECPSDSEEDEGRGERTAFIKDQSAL
T1 sequence (P09958 108-574): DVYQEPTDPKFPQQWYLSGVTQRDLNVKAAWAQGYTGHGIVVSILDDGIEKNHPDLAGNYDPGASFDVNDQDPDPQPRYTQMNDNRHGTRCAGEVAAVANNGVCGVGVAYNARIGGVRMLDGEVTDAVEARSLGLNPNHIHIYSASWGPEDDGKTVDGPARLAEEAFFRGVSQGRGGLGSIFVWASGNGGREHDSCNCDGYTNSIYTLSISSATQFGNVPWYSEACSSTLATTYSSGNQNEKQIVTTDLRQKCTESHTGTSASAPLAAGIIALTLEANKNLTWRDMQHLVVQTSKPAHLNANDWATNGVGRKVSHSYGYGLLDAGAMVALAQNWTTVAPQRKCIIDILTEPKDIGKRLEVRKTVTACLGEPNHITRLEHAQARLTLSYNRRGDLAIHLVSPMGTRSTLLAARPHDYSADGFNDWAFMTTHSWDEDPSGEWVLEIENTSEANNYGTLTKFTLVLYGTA

furin enzyme pIC50 [1]	EC50 [2]	Compound	% inhibition of hydroxyproline in lung ([3]; 10 mg/kg, Oral, Once daily)	% inhibition of total TGFβ in lung (TGFβ in mouse lung; 10 mg/kg, Oral, Once daily)	also measured
9.1	3.16 nM	CC(=O)NCC1CCN(Cc2cc(Oc3ccc(N4CCN(CCO)CC4)nc3)nc(-c3cc(Cl)cc(Cl)c3)c2)CC1 [Example 180, N-((1-((2-(3,5-Dichlorophenyl)-6-((6-(4-(2-hydroxyethyl)piperazin-1-yl)pyridin-3-yl)oxy)pyridin-4-yl)methyl)piperidin-4-yl)methyl)acetamide]	–	–	% inhibition of hydroxyproline in lung [3, 7]: 56* %; % inhibition of total TGFβ in lung (TGFβ in mouse lung; [7]): 60* %
8.6	25.1 nM	O=C(O)CC1CCN(Cc2cc(Oc3cnc(N4CCNCC4)nc3)nc(-c3cc(Cl)cc(Cl)c3)c2)CC1 [Example 206, 2-(1-((2-(3,5-Dichlorophenyl)-6-((2-(piperazin-1-yl)pyrimidin-5-yl)oxy)pyridin-4-yl)methyl)piperidin-4-yl)acetic acid]	6%	−11%	–
8.6	25.1 nM	CS(=O)(=O)CCCN1CCN(c2ncc(Oc3cc(CN4CCC(CC(=O)O)CC4)cc(-c4cc(Cl)cc(Cl)c4)n3)cn2)CC1 [Example 242, 2-(1-((2-(3,5-Dichlorophenyl)-6-((2-(4-(3-(methylsulfonyl)propyl)piperazin-1-yl)pyrimidin-5-yl)oxy)pyridin-4-yl)methyl)piperidin-4-yl)acetic acid]	−1%	40* %	–
9.2	20 nM	C[C@@H](O)CN1CCN(c2ncc(Oc3cc(CN4CCC(CC(=O)O)CC4)cc(-c4cc(Cl)cc(Cl)c4)n3)cn2)CC1 [Example 298, (R)-2-(1-((2-(3,5-Dichlorophenyl)-6-((2-(4-(2-hydroxypropyl)piperazin-1-yl)pyrimidin-5-yl)oxy)pyridin-4-yl)methyl)piperidin-4-yl)acetic acid]	16* %	23* %	–

The next lines start with the molecule.

Compound	furin enzyme pIC50 [1]	EC50 [2]	% inhibition of hydroxyproline in lung ([3]; 10 mg/kg, Oral, Once daily)	% inhibition of total TGFβ in lung (TGFβ in mouse lung; 10 mg/kg, Oral, Once daily)	also measured
CC(CC1CCN(Cc2cc(Oc3cnc(N4CCN(C)CC4)nc3)nc(-c3cc(Cl)cc(Cl)c3)c2)CC1)C(=O)O (stereo in doubt) [Example 137, (R)-3-(1-((2-(3,5-dichlorophenyl)-6-((2-(4-methylpiperazin-1-yl)pyrimidin-5-yl)oxy)pyridin-4-yl)methyl)piperidin-4-yl)-2-methylpropanoic acid]	9.1	10 nM	54* %	81* %	–
CN(C)C(=O)COC(=O)Cc1ccc(OC(=O)c2ccc(NC(=N)N)cc2)cc1 [Camostat]	–	–	–	–	Delta RTE after Amil [4, 5]: +15 ± 2; Delta RTE after Volume Additions [4, 5]: +82 ± 4; inhibition of amiloride-sensitive RTE delta (remaining ENaC activity) ([4]; acute treatment, tested at much higher concentrations than Example 11): more strongly; effect on the amiloride-sensitive RTE delta ([4]; chronic overnight treatment, 50 μM, P<0.05): equivalent inhibitory effect; Delta RTE ([4]; 3 μM): +172 ± 20; RTE After Amil ([4]; 3 μM): 615 ± 26; RTE Before Amil ([4]; 3 μM): 443 ± 6; Delta RTE ([4]; 10 μM): +119 ± 1; RTE After Amil ([4]; 10 μM): 506 ± 10; RTE Before Amil ([4]; 10 μM): 387 ± 11; Delta RTE ([4]; 30 μM): +163 ± 8; RTE After Amil ([4]; 30 μM): 635 ± 13; RTE Before Amil ([4]; 30 μM): 472 ± 6; Delta RTE ([4]; 50 μM): +98 ± 2; RTE After Amil ([4]; 50 μM): 446 ± 3; RTE Before Amil ([4]; 50 μM): 348 ± 4
CC(=O)NCC1CCN(Cc2cc(Oc3ccc(N4CCN(CC(=O)O)CC4)nc3)nc(-c3cc(Cl)cc(Cl)c3)c2)CC1 [Example 10, 2-(4-(5-((4-((4-(Acetamidomethyl)piperidin-1-yl)methyl)-6-(3,5-dichlorophenyl)pyridin-2-yl)oxy)pyridin-2-yl)piperazin-1-yl)acetic acid, 4 hydrochloride]	8.7	126 nM	–	–	% inhibition of hydroxyproline in lung [3, 6]: 16%; % inhibition of total TGFβ in lung (TGFβ in mouse lung; [6]): 43* %
CC(=O)NCC1CCN(Cc2cc(Oc3ccc(N4CCN(CCS(C)(=O)=O)CC4)nc3)nc(-c3cc(Cl)cc(Cl)c3)c2)CC1 [Example 12, N-((1-((2-(3,5-Dichlorophenyl)-6-((6-(4-(2-(methylsulfonyl)ethyl)piperazin-1-yl)pyridin-3-yl)oxy)pyridin-4-yl)methyl)piperidin-4-yl)methyl)acetamide, 4 hydrochloride]	8.3	25.1 nM	–	–	% inhibition of hydroxyproline in lung ([3]; 30 mg/kg, Oral, Once daily): 45* %; % inhibition of total TGFβ in lung (TGFβ in mouse lung; 30 mg/kg, Oral, Once daily): 41* %
CNC(=O)NCC1CCN(Cc2cc(Oc3ccc(N4CCN(CCC(=O)O)CC4)nc3)nc(-c3cc(Cl)cc(Cl)c3)c2)CC1 [Example 41, 3-(4-(5-((6-(3,5-Dichlorophenyl)-4-((4-((3-methylureido)methyl)piperidin-1-yl)methyl)pyridin-2-yl)oxy)pyridin-2-yl)piperazin-1-yl)propanoic acid]	9.1	25.1 nM	–	–	% inhibition of hydroxyproline in lung [3, 7]: 39* %; % inhibition of total TGFβ in lung (TGFβ in mouse lung; [7]): 67* %
COC(=O)NCC1CCN(Cc2cc(Oc3cnc(N4CCN(CCC(=O)O)CC4)nc3)nc(-c3cc(Cl)cc(Cl)c3)c2)CC1 [Example 62, 3-(4-(5-((6-(3,5-Dichlorophenyl)-4-1(4-(((methoxycarbonyl)amino)methyl)piperidin-1-yl)methyl)pyridin-2-yl)oxy)pyrimidin-2-yl)piperazin-1-yl)propanoic acid, 4 hydrochloride]	9.8	31.6 nM	–	–	% inhibition of hydroxyproline in lung ([3]; 30 mg/kg, Oral, Once daily): −14%; % inhibition of total TGFβ in lung (TGFβ in mouse lung; 30 mg/kg, Oral, Once daily): 7%
CN1CCCN(c2ncc(Oc3cc(CN4CCC(CC(=O)O)CC4)cc(-c4cc(Cl)cc(Cl)c4)n3)cn2)CC1 [Example 126, 2-(1-((2-(3,5-Dichlorophenyl)-6-((2-(4-methyl-1,4-diazepan-1-yl)pyrimidin-5-yl)oxy)pyridin-4-yl)methyl)piperidin-4-yl)acetic acid]	9	6.31 nM	–	–	% inhibition of hydroxyproline in lung ([3]; 30 mg/kg, Oral, Once daily): 36* %; % inhibition of total TGFβ in lung (TGFβ in mouse lung; 30 mg/kg, Oral, Once daily): 34* %
CN1CCN(c2ncc(Oc3cc(CN4CCC(CC(=O)O)CC4)cc(-c4cc(Cl)cc(Cl)c4)n3)cn2)CC1 [Example 207, 2-(1-((2-(3,5-Dichlorophenyl)-6-((2-(4-methylpiperazin-1-yl)pyrimidin-5-yl)oxy)pyridin-4-yl)methyl)piperidin-4-yl)acetic acid]	–	–	46* %	66* %	–
CC(=O)NCC1CCN(Cc2cc(Oc3cnc(N4CCN(CCC(=O)O)CC4)nc3)nc(-c3cc(Cl)cc(Cl)c3)c2)CC1 [Example 263, 3-(4-(5-((4-((4-(acetamidomethyl)piperidin-1-yl)methyl)-6-(3,5-dichlorophenyl)pyridin-2-yl)oxy)pyrimidin-2-yl)piperazin-1-yl)propanoic acid]	9.8	10 nM	–	–	% inhibition of hydroxyproline in lung [3, 6]: 60* %; % inhibition of total TGFβ in lung (TGFβ in mouse lung; [6]): 86* %
